Holding throughout (format): in vivo, rat
In assay [1] the test system is orchiectomized (ORX) rats. In words: Test Example 3: effect on prostate, levator ani muscle and femoral bone mineral density in ORX rats (subcutaneous). Particulars: for Femoral bone mineral density / Weight of levator ani muscle / Weight of prostate: 5 days a week, 4 weeks. How it is done:
(§1) Testes were removed from 12-week-old male SD rats. Starting on the next day, the compound of Example 12 or 65 (30 mg/kg) or DHT (0.1, 1, 10 mg/kg) was subcutaneously administered once daily for four consecutive weeks on a 5-day-a-week basis. The Example compounds and DHT were dissolved in dimethyl sulfoxide and diluted 10-fold with olive oil to prepare solutions with various concentrations for use in the test. In an ORX control group, dimethyl sulfoxide as diluted 10-fold with olive oil was used for the test. Rats which had been falsely operated on without orchiectomy were used as a sham control group. On the next day after final administration, the wet weights of the ventral prostate and levator ani muscle were measured and the right femoral bone mineral density was measured by DEXA (double energy X-ray absorption) to evaluate the in vivo efficacy of the compounds of Example 12 and 65.

Assay [2] has as its system orchiectomized (ORX) rats. In words: Test Example 6: effect of oral administration on prostate, levator ani muscle and femoral bone mineral density in ORX rats. Particulars: for Femoral bone mineral density / Weight of levator ani muscle / Weight of prostate: 7 days a week. The method, then: (§2) Testes were removed from 12-week-old male SD rats. Starting on the next day, the compound of Example 108 (30 mg/5 ml/kg) was orally administered once daily for four consecutive weeks on a 7-day-a-week basis. As a positive control, methyl testosterone (MT) (100 mg/5 ml/kg) was orally administered once daily on a continuous 7-day-a-week basis. The test compound was suspended in a 0.5% methyl cellulose solution used as a solvent and the suspension was used in the test. In an ORX control group, a 0.5% methyl cellulose solution (5 ml/kg) was administered. Rats which had been falsely operated on without orchiectomy were used as a sham control group. On the next day after final administration, the wet weights of the ventral prostate and levator ani muscle were measured and the right femoral bone mineral density was measured by DEXA (double energy X-ray absorption) to evaluate the in vivo efficacy of the compound of Example 108. The results are shown in Table 20 and in FIGS. 13 to 15.

For assay [3], the system named is orchiectomized (ORX) rats. Put plainly: Test Example 7: effect of oral administration on prostate, levator ani muscle and femoral bone mineral density in ORX rats. Particulars: for Femoral bone mineral density / Weight of levator ani muscle / Weight of prostate: 7 days a week. The method, then:
as §2, with “129” for “108”, “129.” for “108.”, “21” for “20”, “16” for “13”, “18.” for “15.”

Assay [4] relates to orchiectomized (ORX) rats. In words: Test Example 4: effect on prostate, levator ani muscle and femoral bone mineral density in ORX rats (subcutaneous). The method, then: as §1, with “Example 113” for “Example 12”, “or 114” for “or 65”, “DHT (10” for “DHT (0.1, 1, 10”, “test. […]” for “test. Rats which had been falsely operated on without orchiectomy were used as a sham control group.”, “and 114.” for “and 65.”

Assay [5] deals with orchiectomized (ORX) rats. Put plainly: Test Example 2: effect on prostate, levator ani muscle and femoral bone mineral density in ORX rats (subcutaneous). Particulars: for Femoral bone mineral density / Weight of levator ani muscle / Weight of prostate: 5 days a week, 4 weeks. The method, then:
as §1, with “1 (3, 10, 30” for “12 or 65 (30”, “compound” for “compounds”, “1.” for “12 and 65.”

The subject of assay [6] is orchiectomized (ORX) rats. In words: Test Example 5: effect of oral administration on prostate, levator ani muscle and femoral bone mineral density in ORX rats. The method, then:
Testes were removed from 12-week-old male SD rats. Starting on the next day, the compound of Example 1 (100 mg/10 ml/kg) was orally administered once daily for four consecutive weeks on a 5-day-a-week basis. As a positive control, testosterone propionate (TP) (10 mg/kg) was subcutaneously administered once daily on a continuous 5-day-a-week basis. The test compound was suspended in a 0.5% methyl cellulose solution used as a solvent whereas TP was dissolved in dimethyl sulfoxide and diluted 10-fold with olive oil for use in the test. In an ORX control group, dimethyl sulfoxide as diluted 10-fold with olive oil was used for the test. Rats which had been falsely operated on without orchiectomy were used as a sham control group. On the next day after final administration, the wet weights of the ventral prostate and levator ani muscle were measured and the right femoral bone mineral density was measured by DEXA (double energy X-ray absorption) to evaluate the in vivo efficacy of the compound of Example 1. The results are shown in Table 19 and in FIGS. 10 to 12.

The mark [7] stands for this setting: 30 mg/kg orally once daily, 4 weeks.
The mark [8] stands for this setting: 10 mg/kg sc once daily, 5 days a week, 4 weeks.
The mark [9] stands for this setting: 10 mg/kg sc once daily, 5 days a week.

As for `CC(C)(CNC(=O)c1ccc(OC(F)(F)F)cc1)[C@H]1Nc2ccc([N+](=O)[O-])cc2[C@H]2OCC[C@H]21` (relative stereo) [Example 65, (3aS*,4S*,9bS*)-N-[2-methyl-2-(8-nitro-2,3,3a,4,5,9b-hexahydro-furo[3,2-c]quinolin-4-yl)propyl]-4-trifluoromethoxybenzamide], the “Prostate weight as % of the level of the sham control group” value (“Prostate weight as %” below) in assay [1] (30 mg/kg sc) is reported as “about 70%”. Besides, in assay [1] (30 mg/kg sc once daily), the “Femoral bone mineral density” value came to 120 ± 5 mg/cm^2, the “Weight of levator ani muscle” value turned out to be 67 ± 6 mg/100 g body weight and the Weight of prostate amounted to 69 ± 10 mg/100 g body weight.

For `CC(=O)Nc1ccc(C(=O)NCC(C)(C)[C@H]2Nc3ccc(C#N)cc3[C@H]3C=CC[C@H]32)cn1` (relative stereo) [Example 108, (3aR*,4S*,9bS*)-6-acetylamino-N-[2-(8-cyano-3a,4,5,9b-tetrahydro-3H-cyclopenta[c]quinolin-4-yl)-2-methyl-propyl]nicotinamide], in assay [2] (30 mg/kg orally), the “Prostate weight as %” value was “about 70%”. Besides, in assay [2] (setting [7]), the “Femoral bone mineral density” value was 141 ± 6 mg/cm^2, the “Weight of levator ani muscle” value is on record as 61 ± 6 mg/100 g body weight and the Weight of prostate is listed as 67 ± 13 mg/100 g body weight.

In the case of `CC(=O)Nc1ccc(C(=O)NCC(C)[C@H]2Nc3ccc(C#N)cc3[C@H]3OCC[C@H]32)cc1` (relative stereo) [Example 129, (3aS*,4R*,9bS*)-4-acetylamino-N-[2-(8-cyano-2,3,3a,4,5,9b-hexahydro-furo[3,2-c]quinolin-4-yl)propyl]benzamide], the “Prostate weight as %” value in assay [3] (30 mg/kg orally) is “about 85%”. Further, in assay [3] (setting [7]), the “Femoral bone mineral density” value is 145 ± 5 mg/cm^2, the “Weight of levator ani muscle” value is 66 ± 6 mg/100 g body weight and the Weight of prostate was 109 ± 66 mg/100 g body weight.

Turning to `C[C@]12CCC(=O)C[C@@H]1CC[C@@H]1[C@@H]2CC[C@]2(C)[C@@H](O)CC[C@@H]12` [DHT, Dihydrotestosterone, reference compound], the “Femoral bone mineral density” value in assay [1] (0.1 mg/kg sc once daily) is recorded as 114 ± 6 mg/cm^2; in assay [1] (1 mg/kg sc once daily) it was 115 ± 4 mg/cm^2; in assay [1] (10 mg/kg sc once daily) it was 122 ± 3 mg/cm^2; in assay [4] (setting [8]) it was 148 ± 5 mg/cm^2; in assay [5] (0.1 mg/kg sc once daily), 114 ± 6 mg/cm^2; in assay [5] (1 mg/kg sc once daily) it was 115 ± 4 mg/cm^2. Moreover, the “Femoral bone mineral density” value in assay [5] (10 mg/kg sc once daily) was determined as 122 ± 3 mg/cm^2. Besides, the “Weight of levator ani muscle” value in assay [1] (0.1 mg/kg sc once daily) was 37 ± 6 mg/100 g body weight; in assay [1] (1 mg/kg sc once daily) it was 47 ± 3 mg/100 g body weight; in assay [1] (10 mg/kg sc once daily), 80 ± 5 mg/100 g body weight; in assay [4] (setting [8]), 89 ± 7 mg/100 g body weight; in assay [5] (0.1 mg/kg sc once daily), 39 ± 9 mg/100 g body weight; in assay [5] (1 mg/kg sc once daily) it was 58 ± 5 mg/100 g body weight. Also, in assay [5] (10 mg/kg sc once daily), the “Weight of levator ani muscle” value came out at 78 ± 6 mg/100 g body weight. Further, the Weight of prostate in assay [1] (0.1 mg/kg sc once daily) came out at 34 ± 11 mg/100 g body weight; in assay [1] (1 mg/kg sc once daily), 81 ± 15 mg/100 g body weight; in assay [1] (10 mg/kg sc once daily) it was 146 ± 16 mg/100 g body weight; in assay [4] (setting [8]) it was 199 ± 27 mg/100 g body weight; in assay [5] (0.1 mg/kg sc once daily), 38 ± 7 mg/100 g body weight; in assay [5] (1 mg/kg sc once daily) it was 100 ± 9 mg/100 g body weight. Further, the Weight of prostate in assay [5] (10 mg/kg sc once daily) is recorded as 166 ± 26 mg/100 g body weight. The results for the “Prostate weight as %” value in assay [1] (10 mg/kg sc), in assay [4] (10 mg/kg sc) and in assay [5] (10 mg/kg sc) were “about 145%”, “about 140%” and “about 160%”, respectively.

Take `C[C@]12CCC(=O)C=C1CC[C@@H]1[C@@H]2CC[C@@]2(C)[C@H]1CC[C@]2(C)O` [MT, methyl testosterone, reference compound]: the “Prostate weight as %” value in assay [3] (100 mg/kg orally) was “about 115%”. Also, in assay [3] (100 mg/kg orally once daily), the “Femoral bone mineral density” value is 149 ± 6 mg/cm^2, the “Weight of levator ani muscle” value was found to be 63 ± 5 mg/100 g body weight and the Weight of prostate came to 143 ± 63 mg/100 g body weight. The “Prostate weight as %” value in assay [2] (100 mg/kg orally) is listed as “about 120%”. In assay [2] (100 mg/kg orally once daily), the “Femoral bone mineral density” value was 146 ± 5 mg/cm^2, the “Weight of levator ani muscle” value came to 65 ± 8 mg/100 g body weight and the Weight of prostate is listed as 117 ± 18 mg/100 g body weight.

For `CCC(=O)O[C@H]1CC[C@H]2[C@@H]3CCC4=CC(=O)CC[C@]4(C)[C@H]3CC[C@]12C` [TP, testosterone propionate, reference compound], in assay [6] (10 mg/kg sc), the “Prostate weight as %” value is “about 125%”. In addition, in assay [6] (setting [9]), the “Femoral bone mineral density” value is reported as 135 ± 8 mg/cm^2, the “Weight of levator ani muscle” value came out at 88 ± 9 mg/100 g body weight and the Weight of prostate is listed as 204 ± 29 mg/100 g body weight.

Values taken from US20060128737A1, “Androgen receptor agonists” (KAKEN PHARMACEUTICAL CO., LTD., priority 2003, published 2006).
